Measurements published in patent US20210009583A1, “DEUTERATED IMIDAZOPYRIDINES” (UNIVERSITY OF NOTRE DAME DU LAC, priority 2018, published 2021).
“And” between values parts separate entries of the source, which are not always exact repeats. Identical values can stand only once. “Also recorded” adds a separate entry of the source. Like-named read-outs stand apart in the source and are kept apart here.

Assays:
[1] = test system: M. tuberculosis; experiment: Chronic Balb/c mouse model of M. tuberculosis infection; format: in vivo; details: for CFU drop (bacteriostatic activity) / Mouse survival: 4 weeks of oral dosing; for Spleen, gross necropsy observation: after 4 weeks of treatment, individual mice; for Lung Log10 CFU ± SEM / Spleen Log10 CFU ± SEM / Log reduction vs CTL (Lg) / Log reduction vs CTL (Sp): 4 Week Treatment; for Log reduction vs CTL (Lg): lung; for Log reduction vs CTL (Sp): spleen
[2] = Single dose pharmacokinetic study after oral administration, with and without ABT pre-dosing; format: in vivo, female Balb/c mice
Procedure: Based on MIC and acute toxicity data, two compounds ND-011176 and a deuterated analog ND-012101 were selected for evaluation in a single dose pharmacokinetic study (with and without pre-dosing of 1-Aminobenzotriazole, ABT) after oral administration to female Balb/c mice.
All animals were administered with the prepared test article via oral gavage at a target dose level of 200 mg/kg and at the dose volume detailed in the table 1 below. Each animal in Groups 2, 4, 6, 8 and 10 received a dose of ABT (100 mg/kg) via oral gavage two hours prior to Test Article administration.
Whole blood samples (0.1 mL each) were collected at the first time point via submandibular vein (SMV), or an appropriate peripheral vein if it was necessary. Up to 0.5 mL of whole blood was collected at terminal blood collection via intra cardiac puncture (ICP). For animals 1-3 from each of the 10 Groups, blood samples were collected at 0.5 and 4 hours after oral dosing. […]
The plasma samples and dose formulation samples were analyzed by the Testing Facility to determine the concentration of the test article using LC-MS/MS. PK parameters were estimated from the plasma concentration-time data by standard non-compartmental methods utilizing suitable analysis software.

[3] = Body weight at gross necropsy after 4 weeks of treatment (chronic model); format: in vivo, Balb/c mouse; details: individual mice
Procedure: When evaluated in the “Chronic Balb/c mouse model” of M. tuberculosis infection by the method of Lenaerts, A. J., et. al. 2005. Preclinical testing of the nitroimidazopyran PA-824 for activity against M. tuberculosis in a series of in vitro and in vivo models. AAC. 49(6):2294-301. ND-012101 at 200 mg/kg and ND-012101(100 mg/kg)+ABT (100 mg/kg) both achieved 100% mouse survival after 4 weeks of oral dosing.

[4] = 5 h (mean of the "8" and "12" TP samples taken before euthanasia), PO 200 mg/kg + 100 mg/kg ABT
[5] = female, Balb/c, mouse, in vivo, po, 200 mg/kg
[6] = mouse, in vivo, female Balb/c mice, single oral dose 200 mg/kg, no ABT

For `[2H]c1c(C([2H])([2H])[2H])c([2H])n2c(C(=O)NCc3ccc(C(F)(F)F)cc3)c(C)nc2c1[2H]` [ND-012101], the “CFU drop (bacteriostatic activity)” value ([1]; 100 mg/kg + ABT 100 mg/kg) was < 1 log CFU, the Mouse survival ([1]; 100 mg/kg + ABT 100 mg/kg) was 100% and the “CFU drop (bacteriostatic activity)” value ([1]; 200 mg/kg) was < 1 log CFU. The Mouse survival ([1]; 200 mg/kg) was 100%, the “Spleen, gross necropsy observation” value ([1]; Group 3, ND-012101 + ABT) was “Slightly enlarged” and the “Spleen, gross necropsy observation” value ([1]; Group 6, ND-012101 alone) was “Slightly enlarged; also recorded: normal”. For the same compound, the “Lung Log10 CFU ± SEM” value ([1]; ND-012101 (100) + ABT (100)) was 5.62 ± 0.06 Log10 CFU, the “Spleen Log10 CFU ± SEM” value ([1]; ND-012101 (100) + ABT (100)) was 4.80 ± 0.14 Log10 CFU and the “Lung Log10 CFU ± SEM” value ([1]; ND-012101 (200)) was 5.93 ± 0.08 Log10 CFU. The “Spleen Log10 CFU ± SEM” value ([1]; ND-012101 (200)) was 5.02 ± 0.08 Log10 CFU, the “Log reduction vs CTL (Lg)” value ([1]; ND-012101 (100) + ABT (100)) was 0.17 and the “Log reduction vs CTL (Lg)” value ([1]; ND-012101 (200)) was −0.14. For the same compound, the “Log reduction vs CTL (Sp)” value ([1]; ND-012101 (100) + ABT (100)) was 0.20, the “Log reduction vs CTL (Sp)” value ([1]; ND-012101 (200)) was −0.02 and the “Drug plasma concentration, individual mice” value ([2]; 0.5 h, PO 200 mg/kg + 100 mg/kg ABT) was 22700 ng/mL and 19100 ng/mL. For the same compound, the “Drug plasma concentration, individual mice” value ([2]; 0.5 h, PO 200 mg/kg, no ABT, 200 mg/kg) was 23100 ng/mL and 19900 ng/mL, the “Drug plasma concentration, individual mice” value ([2]; 2 h, PO 200 mg/kg + 100 mg/kg ABT) was 37700 ng/mL and 35500 ng/mL and the “Drug plasma concentration, individual mice” value ([2]; 2 h, PO 200 mg/kg, no ABT, 200 mg/kg) was 7900 ng/mL and 3080 ng/mL and 4590 ng/mL. For the same compound, the “Drug plasma concentration, individual mice” value ([2]; 4 h, PO 200 mg/kg + 100 mg/kg ABT) was 47200 ng/mL and 35000 ng/mL, the “Drug plasma concentration, individual mice” value ([2]; 4 h, PO 200 mg/kg, no ABT, 200 mg/kg) was 1350 ng/mL and 3490 ng/mL and 966 ng/mL and the “Drug plasma concentration, Average” value [2, 4] was 50017^^ ng/mL. For the same compound, the “Drug plasma concentration, individual mice” value [2, 4] was 49100^^ ng/mL and 47600^^ ng/mL and 53350^^ ng/mL, the “Drug plasma concentration, individual mice” value ([2]; 8 h, PO 200 mg/kg, no ABT, 200 mg/kg) was 67.6 ng/mL and 22.3 ng/mL and 100 ng/mL and the “Drug plasma concentration, individual mice” value ([2]; 12 h, PO 200 mg/kg, no ABT, 200 mg/kg) was 2.10 ng/mL and 1.19 ng/mL. For the same compound, the “Drug plasma concentration, individual mice” value ([2]; 24 h, PO 200 mg/kg, no ABT) was “BQL”, the “% AUC Extrap” value ([2]; female Balb/c mice, single oral dose 200 mg/kg, no ABT) was 0.00% and the concentration at 0.5 h ([2]; female, Balb/c, mouse, in vivo, 0.5 h, PO 200 mg/kg + 100 mg/kg ABT, read-out: Drug plasma concentration, Average) was 21700 ng/mL. The concentration at 0.5 h ([2]; female, Balb/c, mouse, in vivo, 0.5 h, PO 200 mg/kg + 100 mg/kg ABT, read-out: Drug plasma concentration, individual mice) was 23300 ng/mL, the concentration at 2 h ([2]; female, Balb/c, mouse, in vivo, 2 h, PO 200 mg/kg + 100 mg/kg ABT, read-out: Drug plasma concentration, Average) was 34300 ng/mL and the concentration at 2 h ([2]; female, Balb/c, mouse, in vivo, 2 h, PO 200 mg/kg + 100 mg/kg ABT, read-out: Drug plasma concentration, individual mice) was 29800 ng/mL. The concentration at 4 h ([2]; female, Balb/c, mouse, in vivo, 4 h, PO 200 mg/kg + 100 mg/kg ABT, read-out: Drug plasma concentration, Average) was 43500 ng/mL, the concentration at 4 h ([2]; female, Balb/c, mouse, in vivo, 4 h, PO 200 mg/kg + 100 mg/kg ABT, read-out: Drug plasma concentration, individual mice) was 48200 ng/mL and the “AUC(0-x)/Dose” value [2, 5] was 125 ng·h/mL/mg/kg. For the same compound, the “AUC(0-∞)/Dose” value [2, 5] was 125 ng·h/mL/mg/kg, the Cmax/Dose [2, 5] was 96 ng/mL/mg/kg and the concentration at 0.5 h ([2]; female, Balb/c, mouse, in vivo, po, 200 mg/kg, 0.5 h, PO 200 mg/kg, no ABT, read-out: Drug plasma concentration, Average) was 19200 ng/mL. The concentration at 0.5 h ([2]; female, Balb/c, mouse, in vivo, po, 200 mg/kg, 0.5 h, PO 200 mg/kg, no ABT, read-out: Drug plasma concentration, individual mice) was 14700 ng/mL, the concentration at 2 h ([2]; female, Balb/c, mouse, in vivo, po, 200 mg/kg, 2 h, PO 200 mg/kg, no ABT, read-out: Drug plasma concentration, Average) was 5190 ng/mL and the concentration at 4 h ([2]; female, Balb/c, mouse, in vivo, po, 200 mg/kg, 4 h, PO 200 mg/kg, no ABT, read-out: Drug plasma concentration, Average) was 1940 ng/mL. It also gave a concentration at 8 h ([2]; female, Balb/c, mouse, in vivo, po, 200 mg/kg, 8 h, PO 200 mg/kg, no ABT, read-out: Drug plasma concentration, Average) of 63 ng/mL, a concentration at 12 h ([2]; female, Balb/c, mouse, in vivo, po, 200 mg/kg, 12 h, PO 200 mg/kg, no ABT, read-out: Drug plasma concentration, Average) of 2 ng/mL and a concentration at 12 h ([2]; female, Balb/c, mouse, in vivo, po, 200 mg/kg, 12 h, PO 200 mg/kg, no ABT, read-out: Drug plasma concentration, individual mice) of 2 ng/mL. The Cmax ([2]; mouse, in vivo, female Balb/c mice, single oral dose 200 mg/kg, ABT 100 mg/kg PO 2 h before, manually added from the TA concentration data) was 48400 ng/mL, the AUC(0-inf) [2, 6] was 25000 ng·h/mL and the Cmax [2, 6] was 19200 ng/mL. It also gave a Tmax [2, 6] of 60 min, a half-life [2, 6] of 47.4 min and an AUC ([2]; mouse, in vivo, female Balb/c mice, single oral dose 200 mg/kg, no ABT, read-out: AUC(0-x)) of 25000 ng·h/mL. For the same compound, the Weight ([3]; Group 3, ND-012101 + ABT) was 20.4 (2×) and 20.8 and 20.0 and 20.5 and 18.6 and the Weight ([3]; Group 6, ND-012101 alone) was 21.5 (2×) and 20.7 and 20.3 and 19.9 and 20.8.
